Data: patent US20240247015A1, “PHOSPHORUS DERIVATIVES AS NOVEL SOS1 INHIBITORS” (BAYER AKTIENGESELLSCHAFT, priority 2021, published 2024)

Target: interaction of human SOS1 (SOS1) with human K-RasG12C (Homo sapiens (Human), UniProt Q07889)
Assay: Biochemical assay: hK-RasG12C interaction assay with hSOS1 (HTRF)
Format: binding
Conditions: GST-hK-RasG12C with His-hSOS1, 60 min incubation at 20° C., mean, read-out: K-RasG12C - SOS interaction assay IC50 (mean)
Summary of the method: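 Compounds, duplicates at 11 concentrations from 0.073 nM to 20 µM, were preincubated 2 min with 10 nM GST-hK-RasG12C, then 20 nM His-hSOS1 was added, all at 20 °C. After 60 min, 665/620 nm HTRF ratio normalized to DMSO and SOS1-free controls; IC50 by 4-parameter fit.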

interaction of human SOS1 (SOS1) with human K-RasG12C, sequence (Q07889 564-1049 limits assumed): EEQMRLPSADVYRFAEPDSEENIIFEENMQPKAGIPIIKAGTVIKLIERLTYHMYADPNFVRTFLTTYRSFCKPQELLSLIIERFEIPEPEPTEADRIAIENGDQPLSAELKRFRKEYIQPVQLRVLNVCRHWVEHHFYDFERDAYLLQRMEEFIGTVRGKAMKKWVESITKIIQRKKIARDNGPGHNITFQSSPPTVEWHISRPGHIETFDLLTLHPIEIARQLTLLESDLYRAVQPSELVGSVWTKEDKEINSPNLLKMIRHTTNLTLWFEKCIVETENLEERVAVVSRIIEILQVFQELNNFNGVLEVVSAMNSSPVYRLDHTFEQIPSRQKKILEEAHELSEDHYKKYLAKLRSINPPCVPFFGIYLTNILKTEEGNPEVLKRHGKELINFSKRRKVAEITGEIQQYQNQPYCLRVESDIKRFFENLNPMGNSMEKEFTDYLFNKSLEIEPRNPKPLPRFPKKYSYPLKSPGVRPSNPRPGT

Row | SMILES | IC50 [nM]
1 | CC(=O)N1CCP(=O)(c2cc3c(N[C@H](C)c4cccc(C(F)(F)F)c4F)nc(C)nc3cn2)CC1 [Example 142, 1-acetyl-4-[4-{{(1R)-1-[2-fluoro-3-(trifluoromethyl)phenyl]ethyl}amino)-2-methylpyrido[3,4-d]pyrimidin-6-yl]-1,4lambda^5-azaphosphinan-4-one] | 6.3
2 | Cc1nc(N[C@H](C)c2cccc(C(F)(F)C(O)C(C)C)c2F)c2cc(P(C)(C)=O)ncc2n1 (single isomer, unassigned) [Example 66, (2R*)-1-{3-[(1R)-1-{[6-(dimethylphosphoryl)-2-methylpyrido[3,4-d]pyrimidin-4-yl]amino}ethyl]-2-fluorophenyl}-1,1-difluoro-3-methylbutan-2-ol] | 25.1
3 | Cc1nc(N[C@H](C)c2cccc(C(F)(F)C(C)O)c2F)c2cc(P(C)(=O)C(C)C)ncc2n1 (single isomer, unassigned) [Example 82, (2R*)-1,1-difluoro-1-{2-fluoro-3-[(1R)-1-({2-methyl-6-[methyl(propan-2-yl)phosphoryl]pyrido[3,4-d]pyrimidin-4-yl}amino)ethyl]phenyl}propan-2-ol] | 24.5
4 | Cc1nc(N[C@H](C)c2cccc(C(F)(F)F)c2C)c2cc(P3(=O)CCN(C(=O)N(C)C)CC3)ncc2n1 [Example 188] | 6.34
5 | Cc1nc(N[C@H](C)c2cccc(C(F)F)c2F)c2cc(P3(=O)CCN(C(=O)[C@@H](C)O)CC3)ncc2n1 [Example 150, 4-[4-{{(1R)-1-[3-(difluoromethyl)-2-fluorophenyl]ethyl}amino)-2-methylpyrido[3,4-d]pyrimidin-6-yl]-1-[(2R)-2-hydroxypropanoyl]-1,4lambda^5-azaphosphinan-4-one] | 4.76
6 | Cc1nc(N[C@H](C)c2cccc(C(F)F)c2F)c2cc(P(C)(C)=O)ncc2n1 [Example 2, N-{(1R)-1-[3-(difluoromethyl)-2-fluorophenyl]ethyl}-6-(dimethylphosphoryl)-2-methylpyrido[3,4-d]pyrimidin-4-amine] | 50.8
7 | CC(=O)N1CCP(=O)(c2cc3c(N[C@H](C)c4cccc(C(F)(F)CO)c4F)nc(C)nc3cn2)CC1 [Example 42, 1-acetyl-4-[4-({(1R)-1-[3-(1,1-difluoro-2-hydroxyethyl)-2-fluorophenyl]ethyl}amino)-2-methylpyrido[3,4-d]pyrimidin-6-yl]-1,4lambda^5-azaphosphinan-4-one] | 4.87
8 | COc1nc2nc(C)nc(N[C@H](C)c3cccc(C(F)(F)F)c3C)c2cc1P1(=O)CCN(C(C)=O)CC1 [Example 144, 1-acetyl-4-[7-methoxy-2-methyl-4-({(1R)-1-[2-methyl-3-(trifluoromethyl)phenyl]ethyl}amino)pyrido[2,3-d]pyrimidin-6-yl]-1,4lambda^5-azaphosphinan-4-one] | 1.97
9 | Cc1nc(N[C@H](C)c2cccc(C(F)F)c2F)c2cc(P3(=O)CCN(C(=O)C4(C(F)F)CC4)CC3)ncc2n1 [Example 159, 1-[1-(difluoromethyl)cyclopropane-1-carbonyl]-4-[4-{{(1R)-1-[3-(difluoromethyl)-2-fluorophenyl]ethyl}amino)-2-methylpyrido[3,4-d]pyrimidin-6-yl]-1,4lambda^5-azaphosphinan-4-one] | 12.7
10 | CC(=O)N1CCP(=O)(c2cc3c(N[C@H](C)c4cccc(C(F)(F)F)c4Cl)nc(C)nc3cn2)CC1 [Example 191] | 8.09
11 | CC(=O)N1CCP(=O)(c2cc3c(N[C@H](C)c4cccc(C(F)(F)F)c4C)nc(C)nc3c(C(F)F)n2)CC1 [Example 36, 1-acetyl-4-[8-(difluoromethyl)-2-methyl-4-({(1R)-1-[2-methyl-3-(trifluoromethyl)phenyl]ethyl}amino)pyrido[3,4-d]pyrimidin-6-yl]-1,4lambda^5-azaphosphinan-4-one] | 16.7
12 | Cc1nc(N[C@H](C)c2cccc(C(F)(F)F)c2C)c2cc(P3(=O)CCN(C(=O)C4COC4)CC3)ncc2n1 [Example 164, 4-[2-methyl-4-{{(1R)-1-[2-methyl-3-(trifluoromethyl)phenyl]ethyl}amino)pyrido[3,4-d]pyrimidin-6-yl]-1-(oxetane-3-carbonyl)-1,4lambda^5-azaphosphinan-4-one] | 7.01
13 | Cc1nc(N[C@H](C)c2cccc(C(F)(F)C(C)(C)O)c2F)c2cc(P(C)(=O)C(C)C)ncc2n1 (single isomer, unassigned) [Example 72] | 24.3
14 | CC(=O)N1CCP(=O)(c2cc3c(N[C@H](C)c4cc(C)cc(C(F)(F)F)c4C)nc(C)nc3cn2)CC1 [Example 58, 1-acetyl-4-[4-{{(1R)-1-[2,5-dimethyl-3-(trifluoromethyl)phenyl]ethyl}amino)-2-methylpyrido[3,4-d]pyrimidin-6-yl]-1,4lambda^5-azaphosphinan-4-one] | 6.33
15 | CCP(C)(=O)c1cc2c(N[C@H](C)c3cccc(C(F)(F)CO)c3F)nc(C)nc2cn1 (single isomer, unassigned) [Example 131] | 11.5
16 | CCP(C)(=O)c1cc2c(N[C@H](C)c3cccc(C(F)(F)C(C)O)c3F)nc(C)nc2cn1 (single isomer, unassigned) [Example 74, (2R*)-1-{3-[(1R)-1-{{6-[ethyl(methyl)phosphoryl]-2-methylpyrido[3,4-d]pyrimidin-4-yl}amino)ethyl]-2-fluorophenyl}-1,1-difluoropropan-2-ol] | 24.6

Row | SMILES | IC50 [nM]
17 | CC(=O)N1CCP(=O)(c2cc3c(N[C@H](C)c4cccc(C(C)(F)F)c4)nc(C)nc3cn2)CC1 [Example 141, 1-acetyl-4-[4-({(1R)-1-[3-(1,1-difluoroethyl)phenyl]ethyl}amino)-2-methylpyrido[3,4-d]pyrimidin-6-yl]-1,4lambda^5-azaphosphinan-4-one] | 12.8
18 | CC(=O)N1CCP(=O)(c2cc3c(N[C@H](C)c4cccc(C(F)(F)F)c4C)nc(C)nc3nc2C)CC1 [Example 145, 1-acetyl-4-[2,7-dimethyl-4-({(1R)-1-[2-methyl-3-(trifluoromethyl)phenyl]ethyl}amino)pyrido[2,3-d]pyrimidin-6-yl]-1,4lambda^5-azaphosphinan-4-one] | 4.35
19 | Cc1nc(N[C@H](C)c2cccc(C(F)(F)CO)c2F)c2cc(P(C)(C)=O)ncc2n1 [Example 62, 2-{3-[(1R)-1-{[6-(dimethylphosphoryl)-2-methylpyrido[3,4-d]pyrimidin-4-yl]amino}ethyl]-2-fluorophenyl}-2,2-difluoroethan-1-ol] | 13.5
20 | Cc1nc(N[C@H](C)c2cccc(C(F)F)c2F)c2cc(P3(=O)CCN(C(=O)C4(O)CC4)CC3)ncc2n1 [Example 156, 4-[4-{{(1R)-1-[3-(difluoromethyl)-2-fluorophenyl]ethyl}amino)-2-methylpyrido[3,4-d]pyrimidin-6-yl]-1-(1-hydroxycyclopropane-1-carbonyl)-1,4lambda^5-azaphosphinan-4-one] | 11.4
21 | Cc1nc(N[C@H](C)c2cccc(C(F)F)c2F)c2cc(P3(=O)CCN(C(=O)C(F)F)CC3)ncc2n1 [Example 206] | 3.77
22 | CCP(C)(=O)c1cc2c(N[C@H](C)c3cccc(C(F)(F)CO)c3F)nc(C)nc2cn1 (stereo partly drawn) [Example 130, 2-{3-[(1R)-1-{{6-[ethyl(methyl)phosphoryl]-2-methylpyrido[3,4-d]pyrimidin-4-yl}amino)ethyl]-2-fluorophenyl}-2,2-difluoroethan-1-ol] | 16.1
23 | Cc1nc(N[C@H](C)c2cccc(C(F)(F)F)c2C)c2cc(P3(=O)CCN(C(=O)C4CC(F)(F)C4)CC3)ncc2n1 [Example 170, 1-(3,3-difluorocyclobutane-1-carbonyl)-4-[2-methyl-4-({(1R)-1-[2-methyl-3-(trifluoromethyl)phenyl]ethyl}amino)pyrido[3,4-d]pyrimidin-6-yl]-1,4lambda^5-azaphosphinan-4-one] | 11.3
24 | CC(=O)N1CCP(=O)(c2cc3c(N[C@H](C)c4cccc(C(F)(F)CN(C)S(C)(=O)=O)c4F)nc(C)nc3cn2)CC1 [Example 200] | 3.95
25 | Cc1nc(N[C@H](C)c2cccc(C(F)(F)F)c2C)c2cc(P3(=O)CCN(C(=O)C(F)F)CC3)ccc2n1 [Example 207] | 6.84
26 | COc1nc2nc(C)nc(N[C@H](C)c3cccc(C(F)(F)F)c3C)c2cc1P(C)(C)=O [Example 101, 6-(dimethylphosphoryl)-7-methoxy-2-methyl-N-{(1R)-1-[2-methyl-3-(trifluoromethyl)phenyl]ethyl}pyrido[2,3-d]pyrimidin-4-amine] | 17.5
27 | Cc1nc(N[C@H](C)c2cccc(C(F)(F)F)c2C)c2cc(P3(=O)CCN(C(=O)C(C)C)CC3)ncc2n1 [Example 171, 4-[2-methyl-4-{{(1R)-1-[2-methyl-3-(trifluoromethyl)phenyl]ethyl}amino)pyrido[3,4-d]pyrimidin-6-yl]-1-(2-methylpropanoyl)-1,4lambda^5-azaphosphinan-4-one] | 6.76
28 | CCP(C)(=O)c1cc2c(N[C@H](C)c3cccc(C(F)(F)C(C)O)c3F)nc(C)nc2cn1 (single isomer, unassigned) [Example 78, (2R*)-1-{3-[(1R)-1-{{6-[ethyl(methyl)phosphoryl]-2-methylpyrido[3,4-d]pyrimidin-4-yl}amino)ethyl]-2-fluorophenyl}-1,1-difluoropropan-2-ol] | 21.8
29 | Cc1nc(N[C@H](C)c2cccc(C(F)(F)F)c2C)c2cc(P3(=O)CCN(c4ccn(C)n4)CC3)ncc2n1 [Example 40, 4-[2-methyl-4-({(1R)-1-[2-methyl-3-(trifluoromethyl)phenyl]ethyl}amino)pyrido[3,4-d]pyrimidin-6-yl]-1-(1-methyl-1H-pyrazol-3-yl)-1,4lambda^5-azaphosphinan-4-one] | 18.3
30 | Cc1nc(N[C@H](C)c2cccc(C(F)F)c2F)c2cc(P(C)(=O)C(C)C)ncc2n1 (stereo partly drawn) [Example 114, N-{(1R)-1-[3-(difluoromethyl)-2-fluorophenyl]ethyl}-2-methyl-6-[methyl(propan-2-yl)phosphoryl]pyrido[3,4-d]pyrimidin-4-amine] | 66.5
31 | CC(=O)NCC(F)(F)c1cccc([C@@H](C)Nc2nc(C)nc3cnc(P4(=O)CCN(C(C)=O)CC4)cc23)c1F [Example 199] | 4.61
